Legend:
[1] = tested on: normal primary NK cells, pool 3 (3 donors) (IL-2 2.5 ng/mL); experiment: percent inhibition of viability; higher = more inhibition; details: 72 h
NK-92 (IL-2 2.5 ng/mL) [2] = experiment: as above; details: 72 h
SNK-6 (IL-2 2.5 ng/mL) [3] = experiment: as above; details: 72 h
[4] = tested on: normal primary NK cells, pool 1 (3 donors), resting (IL-2 0 ng/mL); experiment: as above; details: 72 h
YT (IL-2 2.5 ng/mL) [5] = experiment: as above; details: 72 h
[6] = tested on: normal primary NK cells, pool 2 (3 donors) (IL-2 2.5 ng/mL); experiment: as above; details: 72 h
[7] = tested on: normal primary NK cells, pool 1 (3 donors) (IL-2 2.5 ng/mL); experiment: as above; details: 72 h
DERL-7 (IL-2 2.5 ng/mL) [8] = experiment: as above; details: 72 h
IMC-1 (IL-2 20 ng/mL) [9] = experiment: as above; details: 72 h
NKL (IL-2 2.5 ng/mL) [10] = experiment: as above; details: 72 h
NK-YS (IL-2 2.5 ng/mL) [11] = experiment: as above; details: 72 h
KAI3 (IL-2 2.5 ng/mL) [12] = experiment: as above; details: 72 h
KHYG-1 (IL-2 2.5 ng/mL) [13] = experiment: as above; details: 72 h
[14] = tested on: normal NK cells expanded with K562-aAPC; experiment: drug sensitivity score (DSS) (DSS units); higher = more sensitive; extreme values may be limits of the assay; details: 72 h; IL-2 2.5 ng/mL
Protocol: (§1)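 Drug sensitivity and resistance testing on K562-aAPC-expanded normal NK cells: 5 concentrations (10-fold steps over a 10,000-fold range), 72 h at 37 °C, viability by CellTiter-Glo normalised to DMSO and benzethonium chloride controls; DSS from the fitted curve.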

[15] = tested on: normal NK cells expanded with K562-aAPC; experiment: percent inhibition of viability; higher = more inhibition; details: 72 h, IL-2 2.5 ng/mL
Protocol: as §1

[16] = tested on: normal primary NK cells, pool 3 (3 donors) (IL-2 2.5 ng/mL); experiment: drug sensitivity score (DSS) (DSS units); higher = more sensitive; extreme values may be limits of the assay; details: 72 h
NK-92 (IL-2 2.5 ng/mL) [17] = experiment: as above; details: 72 h
SNK-6 (IL-2 2.5 ng/mL) [18] = experiment: as above; details: 72 h
[19] = tested on: normal primary NK cells, pool 1 (3 donors), resting (IL-2 0 ng/mL); experiment: as above; details: 72 h
YT (IL-2 2.5 ng/mL) [20] = experiment: as above; details: 72 h
[21] = tested on: normal primary NK cells, pool 2 (3 donors) (IL-2 2.5 ng/mL); experiment: as above; details: 72 h
[22] = tested on: normal primary NK cells, pool 1 (3 donors) (IL-2 2.5 ng/mL); experiment: as above; details: 72 h
DERL-7 (IL-2 2.5 ng/mL) [23] = experiment: as above; details: 72 h
IMC-1 (IL-2 20 ng/mL) [24] = experiment: as above; details: 72 h
NKL (IL-2 2.5 ng/mL) [25] = experiment: as above; details: 72 h
NK-YS (IL-2 2.5 ng/mL) [26] = experiment: as above; details: 72 h
KAI3 (IL-2 2.5 ng/mL) [27] = experiment: as above; details: 72 h
KHYG-1 (IL-2 2.5 ng/mL) [28] = experiment: as above; details: 72 h

O=C(Cc1ccc(-c2ccc(OCCN3CCOCC3)cc2)cn1)NCc1ccccc1 [KX2-391] (max concentration tested 10000 nM)
percent inhibition of viability [%]
Details	1 nM	10 nM	100 nM	1000 nM	10000 nM
DERL-7 (IL-2 2.5 ng/mL) [8]	-1.42	5.02	99.3	99.9	98.9
IMC-1 (IL-2 20 ng/mL) [9]	-2.07	-3.69	99.1	100	100
KAI3 (IL-2 2.5 ng/mL) [12]	-3.67	25.5	55.4	76.7	70.3
KHYG-1 (IL-2 2.5 ng/mL) [13]	-5.79	3.13	98.5	107	98.1
NK-92 (IL-2 2.5 ng/mL) [2]	2.97	44	92.2	104	96.8
NK-YS (IL-2 2.5 ng/mL) [11]	-1.95	18.5	69.3	80.8	81.6
NKL (IL-2 2.5 ng/mL) [10]	-12.7	5.97	94.5	96.4	89
SNK-6 (IL-2 2.5 ng/mL) [3]	27.9	54	79.7	91.6	95.2
YT (IL-2 2.5 ng/mL) [5]	-2.25	14.7	95.6	102	95.2
[1]	-15.5	-9.53	-0.96	0.59	6.59
[4]	-13.2	-19.8	7.03	7.66	29.1
[6]	-6.2	-11.1	-5.76	6.08	22.6
[7]	-14.5	-16.4	1.64	8.22	36.6
[15]	-2.89	-0.99	57	55.9	57.5

Details	drug sensitivity score
DERL-7 (IL-2 2.5 ng/mL) [23]	31.1
IMC-1 (IL-2 20 ng/mL) [24]	30
KAI3 (IL-2 2.5 ng/mL) [27]	23
KHYG-1 (IL-2 2.5 ng/mL) [28]	30.7
NK-92 (IL-2 2.5 ng/mL) [17]	34.8
NK-YS (IL-2 2.5 ng/mL) [26]	25.4
NKL (IL-2 2.5 ng/mL) [25]	30.1
SNK-6 (IL-2 2.5 ng/mL) [18]	34.7
YT (IL-2 2.5 ng/mL) [20]	32
[14]	17.9
[16]	0
[19]	2.04
[21]	1.59
[22]	3.06

CCn1cc(-c2ccnc3[nH]c(-c4cccc(CN(C)C)c4)cc23)c(-c2ccc(NC(=O)N(C)C)cc2)n1 (max concentration tested 1000 nM)
percent inhibition of viability [%]
Details	0.1 nM	1 nM	10 nM	100 nM	1000 nM
DERL-7 (IL-2 2.5 ng/mL) [8]	-1.42	-13.7	13.4	68.1	56.9
IMC-1 (IL-2 20 ng/mL) [9]	-3.05	2.14	9.34	18.7	69
KAI3 (IL-2 2.5 ng/mL) [12]	0.71	-0.96	15.3	16.4	34.5
KHYG-1 (IL-2 2.5 ng/mL) [13]	-0.5	3.29	9.71	39.2	54
NK-92 (IL-2 2.5 ng/mL) [2]	-10.8	-15.2	-2.48	28.9	35.5
NK-YS (IL-2 2.5 ng/mL) [11]	-3.92	-3.4	26.2	69.9	66.9
NKL (IL-2 2.5 ng/mL) [10]	-15	-6.31	2.14	11.6	43.2
SNK-6 (IL-2 2.5 ng/mL) [3]	20.9	18.6	35	71.1	65.4
YT (IL-2 2.5 ng/mL) [5]	2.03	4.54	11.2	19.1	39.5
[1]	-9.36	-0.39	7.48	-0.31	7.08
[4]	10.8	-0.01	-0.34	-11.5	8.25
[6]	-0.19	2.58	11.4	2.17	5.89
[7]	6.54	-2.75	2.78	-10.4	-5.89
[15]	-5.72	-6.24	-0.83	49.9	32

Details	drug sensitivity score
DERL-7 (IL-2 2.5 ng/mL) [23]	14.7
IMC-1 (IL-2 20 ng/mL) [24]	6.3
KAI3 (IL-2 2.5 ng/mL) [27]	4.01
KHYG-1 (IL-2 2.5 ng/mL) [28]	8.32
NK-92 (IL-2 2.5 ng/mL) [17]	5.05
NK-YS (IL-2 2.5 ng/mL) [26]	16.5
NKL (IL-2 2.5 ng/mL) [25]	3.99
SNK-6 (IL-2 2.5 ng/mL) [18]	18.6
YT (IL-2 2.5 ng/mL) [20]	4.47
[14]	8.97
[16]	0
[19]	0
[21]	0
[22]	0

Source: the supplement of paper PMC5908809
